Here are results for 41 molecules from ChEMBL document CHEMBL3988442, “University of Dundee, Small-Polar-MMV Screening Library” (2021).

Where “and” joins values, the source holds several entries; their conditions need not be identical. Identical values can stand only once. Some results are limits rather than exact numbers.

The IC50 is the concentration needed to halve the response being measured. A low value points to greater potency.

The target in this assay is T1, Histidine--tRNA ligase (Leishmania infantum, UniProt A4I591).
T1 sequence (A4I591 whole entry): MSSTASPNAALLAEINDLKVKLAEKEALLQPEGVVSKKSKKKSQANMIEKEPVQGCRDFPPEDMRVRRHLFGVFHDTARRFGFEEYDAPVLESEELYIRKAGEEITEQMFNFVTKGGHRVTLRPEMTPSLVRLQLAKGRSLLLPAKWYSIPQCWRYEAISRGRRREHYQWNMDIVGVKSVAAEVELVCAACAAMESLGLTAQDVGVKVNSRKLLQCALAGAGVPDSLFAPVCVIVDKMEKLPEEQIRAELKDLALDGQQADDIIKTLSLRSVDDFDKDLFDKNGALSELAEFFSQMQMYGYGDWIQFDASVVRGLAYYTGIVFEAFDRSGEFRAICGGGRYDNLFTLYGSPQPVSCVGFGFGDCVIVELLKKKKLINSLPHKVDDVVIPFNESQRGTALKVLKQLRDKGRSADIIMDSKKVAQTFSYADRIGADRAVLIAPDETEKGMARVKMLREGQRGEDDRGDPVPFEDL
As to the kind of experiment: Leishmania infantum Histidine tRNA synthetase (LdHisRS). The assay is classed as functional.

Turning to `c1cncc(-c2ccc3c(c2)C2(CC3)CCN(c3nncs3)CC2)c1`, the half-inhibitory concentration (IC50) was 32.5 µM and 45.4 µM.

As for `Cn1cc(NC(=O)Nc2cccc3cccnc23)ccc1=O`, the IC50 was 2.58 µM and 4.22 µM.

With `c1cc2nccc(CC3CCCN(Cc4ncc[nH]4)CC3)c2cn1` (stereo unspecified), the IC50 is above 100 µM. Turning to `Cc1nc(N2CCCC2)nc2c1CCN(C(=O)C1CCC1)CC2`, the concentration for half-maximal inhibition (IC50) is above 100 µM. With `C[C@H](NS(C)(=O)=O)C(=O)NCc1cc(-c2ccco2)n[nH]1`, the IC50 is above 100 µM. The figure for `COc1cccc(CN(C)C(=O)CN2CC(n3nc(C)cc3C)C2)c1` is 37.2 µM and 43.7 µM; for `Cn1cc(NC(=O)Nc2ccccn2)cc(Cl)c1=O` it is 13.6 µM and 14.1 µM; for `Cc1noc(C(C)Nc2ccc(N3CCOCC3)cc2C)n1` (stereo unspecified) it is above 100 µM. Turning to `Cn1nc2c(cc1=O)CN(Cc1nc(-c3ccco3)no1)CC2`, the half-inhibitory concentration (IC50) was 11.8 µM and 14 µM. As to `Cn1nccc1-c1ncc(-c2cc(C(=O)O)n(CC3CC3)c2)cn1`, the IC50 is above 100 µM. Consider `CN(Cc1ccccc1CN1CCCC1)c1ncnc2[nH]ccc12`, for which the IC50 was 44.8 µM and 48.7 µM. Turning to `CC(NC(=O)c1coc(COc2cccc(F)c2)n1)c1nnc(N)s1` (stereo unspecified), the half-maximal inhibitory concentration (IC50) was 98.7 µM and 60.1 µM. With `CCOc1ccc(C(=O)N(CCOC)Cc2c(C)nn(CC)c2C)o1`, the 50% inhibitory concentration (IC50) is above 100 µM. In the case of `Cc1nccc(-c2cccc(NCC(=O)N3CCc4sccc4C3)c2)n1`, the 50% inhibitory concentration (IC50) was 73.8 µM and 68.4 µM. As for `COc1ccc(-c2nc(CN3CCc4c(ncn4C)C3)cs2)cc1`, the IC50 is 69.8 µM and 87.5 µM. Consider `Cc1cc2nc(SCC(=O)N3CCCC3)n(-c3ccccc3)c(=O)c2[nH]1`, for which the IC50 is 80.7 µM and > 100 µM. For the molecule `CN(C)c1ncc(-c2c(-c3ccccc3)ncn2C(CO)C(=O)O)cn1` (stereo unspecified), the half-maximal inhibitory concentration (IC50) is above 100 µM. As to `Cn1nc2c(cc1=O)CN(CC(=O)Nc1cc(C(C)(C)C)no1)CC2`, the IC50 is above 100 µM. The value for `CC(C)c1cc(NC(=O)CN2CCc3nn(C)c(=O)cc3C2)on1` was above 100 µM. `CC(O)CN1CCN(C(=O)c2ccc(Cn3cccn3)cc2)CC1` (stereo unspecified) had an IC50 above 100 µM. The figure for `Cc1noc(C)c1CNc1ccc2nc(C3CC3)sc2c1` is above 100 µM.

In the case of `O=C1CN(C(=O)c2cc(-c3ccco3)nc3c(Cl)cccc23)CCN1`, the IC50 was 18.6 µM and 19.5 µM. As to `CN1CCN(Cc2nnc(C3CCN(C(CO)CO)CC3)n2C)CC1`, the IC50 is 16 µM and 15.8 µM. Consider `CN1C(=O)[C@H]2CC[C@@H]1CN(C(=O)Nc1cccc3ccccc13)C2`, for which the IC50 was 55.3 µM and 43.3 µM.

Regarding `COc1cccn(Cc2nnc(-c3cccc(F)c3)o2)c1=O`, the 50% inhibitory concentration (IC50) is 15.9 µM and 12.8 µM. As to `NC(=O)c1ccc(N2CCCCC2)c(NC(=O)c2cc(Br)ccc2Cl)c1`, the IC50 was 30.2 µM and 29.7 µM.

On to `CC1=Nc2c(c(=O)[nH]n2C(C)C)C(c2ccc3c(c2)OCCO3)S1` (stereo unspecified), for which the IC50 is above 100 µM. `O=C(Nc1ccc(=O)n(Cc2ccccc2Cl)c1)C1CC1`: the IC50 is 6.94 µM and 5.93 µM. The molecule `CC(=O)N1CCO[C@@H]2CN(S(=O)(=O)c3ccc(C)cc3)CC[C@@H]2C1` showed a 50% inhibitory concentration (IC50) above 100 µM. As to `Cc1ccc(C)c(OC(C)C(=O)NCCNc2cccnc2)c1` (stereo unspecified), the concentration for half-maximal inhibition (IC50) is 23.4 µM and 28.9 µM. In the case of `CNC(=O)c1cn2cc(-c3ccccc3Cl)n(CC=C(C)C)c(=O)c2n1`, the IC50 was 54.6 µM and 36 µM.

Take `Cc1ccc(CN2C(=O)CCC2C(=O)Nc2cnn(C)c2)o1` (stereo unspecified): the IC50 is > 100 µM and 90.1 µM. Regarding `c1cncc(NCCNC2CSCCSC2)c1`, the 50% inhibitory concentration (IC50) was 28.7 µM and 19.6 µM. `CC(=O)Nc1ccc2nc(-c3nccn3C[C@@H]3CCCO3)ccc2c1`: the IC50 was > 100 µM and 85.4 µM.

As for `O=C1CC(c2ccc(C(=O)O)cc2)c2ncn(-c3cccc(Cl)c3)c2N1` (stereo unspecified), the concentration for half-maximal inhibition (IC50) is 20.7 µM and 26.5 µM. In the case of `CCCn1nc2c(cc1=O)CN(CCCN1CCCC1=O)CC2`, the IC50 is 48.6 µM and 55.3 µM. As to `CC(=O)N1CCN(c2ccccc2CNc2ccc3[nH]ncc3c2)CC1`, the half-maximal inhibitory concentration (IC50) is > 100 µM and 76.7 µM. In turn, `Cn1nc2c(cc1=O)CN(CC(=O)Nc1nccs1)CC2` gave an IC50 above 100 µM. In the case of `CNCCc1nc2cc(F)ccc2[nH]1`, the concentration for half-maximal inhibition (IC50) was 47.9 µM and 34.8 µM.

Consider `O=C(O)C1c2nc[nH]c2CCN1CC(c1ccccc1)c1ccccc1` (stereo unspecified), for which the concentration for half-maximal inhibition (IC50) was 6.21 µM and 7.09 µM.

For `Cc1ccsc1C(=O)Nc1cc(Br)c(=O)n(C)c1`, the IC50 was 30.3 µM and 25.3 µM.
